Measured values published in PubChem BioAssay AID330 (DTP/NCI, 2004).
Where “and” joins values, the source holds several entries; their conditions need not be identical. Identical values can stand only once. Inconclusive results and toxic doses are left out. The calls were made as follows: active = survival T/C of 150% or more; inactive = T/C below 125% in these data.

Tested on: P388 leukemia ip, CD2F1 mice, survival T/C
Assay: NCI In Vivo Anticancer Drug Screen. Data for tumor model P388 Leukemia (intraperitoneal) in CD2F1 (CDF1) mice
Details: endpoint: median survival time, higher = longer survival
Summary of the method: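 Mice carrying the transplanted tumor received test compound or vehicle. Survival was recorded in each group, and the value is the treated-group measurement divided by that of the vehicle-treated control group.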

[1] = dose: 60.0 mg/kg/injection, schedule: Q01DX005 (ip), vehicle: saline with Tween-80
[2] = dose: 120.0 mg/kg/injection, schedule: Q01DX005 (ip), vehicle: saline with Tween-80
[3] = dose: 240.0 mg/kg/injection, schedule: Q01DX005 (ip), vehicle: saline with Tween-80
[4] = dose: 12.5 mg/kg/injection, schedule: Q01DX009 (ip), vehicle: Klucel (hydroxypropylcellulose) (HPC)
[5] = dose: 60.0 mg/kg/injection, schedule: Q01DX005 (ip), vehicle: saline
[6] = dose: 120.0 mg/kg/injection, schedule: Q01DX005 (ip), vehicle: saline

Measured: T/C

COC(=O)NC1C(=O)OC(C2OC2(C)C)C1(C)C (stereo not drawn)
inactive: [1] 101 % of control and 100 % of control | [2] 101 % of control and 99 % of control | [3] 100 % of control and 99 % of control

S=C(Nc1ccc(Br)cc1)SCc1ccco1
inactive: dose: 12.5 mg/kg/injection, schedule: Q01DX009 (ip), vehicle: saline 106 % of control | dose: 25.0 mg/kg/injection, schedule: Q01DX009 (ip), vehicle: saline 106 % of control | dose: 50.0 mg/kg/injection, schedule: Q01DX009 (ip), vehicle: saline 100 % of control | dose: 50.0 mg/kg/injection, schedule: Q01DX009 (ip), vehicle: suspension in saline 104 % of control | dose: 100.0 mg/kg/injection, schedule: Q01DX009 (ip), vehicle: suspension in saline 93 % of control | dose: 200.0 mg/kg/injection, schedule: Q01DX009 (ip), vehicle: suspension in saline 111 % of control

CC(C)c1cccc(C(C)C)c1N1C(=O)C(=O)C(c2nc3ccccc3s2)C(=O)C1=O
inactive: [1] 103 % of control | [2] 102 % of control | [3] 103 % of control

CC1(C)C2CCC([CH2][Hg][Cl])C1C2 (stereo not drawn)
inactive: dose: 2.44 mg/kg/injection, schedule: Q01DX009 (ip), vehicle: saline with Tween-80 100 % of control | dose: 3.66 mg/kg/injection, schedule: Q01DX009 (ip), vehicle: saline with Tween-80 100 % of control | dose: 5.55 mg/kg/injection, schedule: Q01DX009 (ip), vehicle: other 113 % of control | dose: 5.55 mg/kg/injection, schedule: Q01DX009 (ip), vehicle: saline with Tween-80 100 % of control and 91 % of control | dose: 6.25 mg/kg/injection, schedule: Q04DX003 (ip), vehicle: other 105 % of control | dose: 8.33 mg/kg/injection, schedule: Q01DX009 (ip), vehicle: saline with Tween-80 108 % of control and 95 % of control | dose: 12.5 mg/kg/injection, schedule: Q01DX009 (ip), vehicle: other 86 % of control | dose: 12.5 mg/kg/injection, schedule: Q04DX003 (ip), vehicle: other 100 % of control | dose: 25.0 mg/kg/injection, schedule: Q04DX003 (ip), vehicle: other 100 % of control

Cn1c(=O)c2[nH]c(-c3c[nH]c4ccccc34)nc2n(C)c1=O
inactive: dose: 100.0 mg/kg/injection, schedule: Q04DX003 (ip), vehicle: saline with Tween-80 89 % of control | dose: 200.0 mg/kg/injection, schedule: Q04DX003 (ip), vehicle: saline with Tween-80 89 % of control | dose: 400.0 mg/kg/injection, schedule: Q04DX003 (ip), vehicle: saline with Tween-80 86 % of control

C[N+](C)(C)CCCOC1=Nc2ccccc2O/C1=C/c1ccccc1
inactive: dose: 3.12 mg/kg/injection, schedule: Q01DX009 (ip), vehicle: Klucel (hydroxypropylcellulose) (HPC) 96 % of control | dose: 6.25 mg/kg/injection, schedule: Q01DX009 (ip), vehicle: Klucel (hydroxypropylcellulose) (HPC) 92 % of control | [4] 98 % of control and 104 % of control

Clc1c(CBr)ccc(CBr)c1Cl
inactive: dose: 12.5 mg/kg/injection, schedule: Q01DX009 (ip), vehicle: saline with Tween-80 100 % of control | dose: 25.0 mg/kg/injection, schedule: Q01DX009 (ip), vehicle: saline with Tween-80 100 % of control | dose: 50.0 mg/kg/injection, schedule: Q01DX009 (ip), vehicle: saline with Tween-80 115 % of control

OCc1ccccc1
inactive: dose: 0.12 % in 0.5 ml injection vol, schedule: Q01DX009 (ip), vehicle: water 94 % of control | dose: 0.25 % in 0.5 ml injection vol, schedule: Q01DX009 (ip), vehicle: water 94 % of control | dose: 0.5 % in 0.5 ml injection vol, schedule: Q01DX009 (ip), vehicle: water 100 % of control and 103 % of control | dose: 1.0 % in 0.5 ml injection vol, schedule: Q01DX009 (ip), vehicle: water 95 % of control and 98 % of control | dose: 2.0 % in 0.5 ml injection vol, schedule: Q01DX009 (ip), vehicle: water 98 % of control

Clc1ccccc1N=Cc1ccc(C=Nc2ccccc2Cl)cc1
inactive: [4] 99 % of control | dose: 25.0 mg/kg/injection, schedule: Q01DX009 (ip), vehicle: Klucel (hydroxypropylcellulose) (HPC) 92 % of control

CC(=O)[C@@H]1C[C@H]1C(=O)c1ccccc1
inactive: dose: 67.5 mg/kg/injection, schedule: Q04DX002 (ip), vehicle: Klucel (hydroxypropylcellulose) (HPC) 96 % of control | dose: 135.0 mg/kg/injection, schedule: Q04DX002 (ip), vehicle: Klucel (hydroxypropylcellulose) (HPC) 94 % of control | dose: 270.0 mg/kg/injection, schedule: Q04DX002 (ip), vehicle: Klucel (hydroxypropylcellulose) (HPC) 96 % of control

COc1ccc2nc(C)c(C)nc2c1Cl
inactive: dose: 50.0 mg/kg/injection, schedule: Q01DX005 (ip), vehicle: Klucel (hydroxypropylcellulose) (HPC) 98 % of control | dose: 100.0 mg/kg/injection, schedule: Q01DX005 (ip), vehicle: Klucel (hydroxypropylcellulose) (HPC) 100 % of control | dose: 200.0 mg/kg/injection, schedule: Q01DX005 (ip), vehicle: Klucel (hydroxypropylcellulose) (HPC) 95 % of control

CN(C)c1ccc(C(Cl)[O][Sn]([CH3])([CH3])[Cl])cc1 (stereo not drawn)
inactive: dose: 12.5 mg/kg/injection, schedule: Q04DX002 (ip), vehicle: saline with Tween-80 106 % of control and 116 % of control | dose: 12.5 mg/kg/injection, schedule: Q04DX002 (ip), vehicle: saline 110 % of control | dose: 25.0 mg/kg/injection, schedule: Q04DX002 (ip), vehicle: saline with Tween-80 101 % of control and 106 % of control | dose: 25.0 mg/kg/injection, schedule: Q04DX002 (ip), vehicle: saline 115 % of control | dose: 50.0 mg/kg/injection, schedule: Q04DX002 (ip), vehicle: saline with Tween-80 116 % of control and 120 % of control | dose: 50.0 mg/kg/injection, schedule: Q04DX002 (ip), vehicle: saline 100 % of control | dose: 100.0 mg/kg/injection, schedule: Q04DX002 (ip), vehicle: saline 98 % of control

CC(Br)C(=O)NC(Cc1ccccc1)C(=O)O (stereo not drawn)
inactive: dose: 100.0 mg/kg/injection, schedule: Q01DX009 (ip), vehicle: saline 99 % of control | dose: 200.0 mg/kg/injection, schedule: Q01DX009 (ip), vehicle: saline 103 % of control | dose: 400.0 mg/kg/injection, schedule: Q01DX009 (ip), vehicle: saline 89 % of control

C/C=C(\C)C(=O)OC1CCC2(C)C3CCC4C5(O)CC(O)C6(O)C(CN7CC(C)CCC7C6(C)O)C5(O)CC42OC13O (stereo not drawn)
inactive: dose: 1.56 mg/kg/injection, schedule: Q01DX005 (ip), vehicle: Klucel (hydroxypropylcellulose) (HPC) 98 % of control | dose: 1.56 mg/kg/injection, schedule: Q01DX005 (ip), vehicle: saline 96 % of control | dose: 3.12 mg/kg/injection, schedule: Q01DX005 (ip), vehicle: Klucel (hydroxypropylcellulose) (HPC) 106 % of control | dose: 3.12 mg/kg/injection, schedule: Q01DX005 (ip), vehicle: saline 96 % of control | dose: 6.25 mg/kg/injection, schedule: Q01DX005 (ip), vehicle: Klucel (hydroxypropylcellulose) (HPC) 109 % of control and 91 % of control | dose: 6.25 mg/kg/injection, schedule: Q01DX005 (ip), vehicle: saline 96 % of control

COc1nc2c(ccn2C2OC(COC(C)=O)C(OC(C)=O)C(OC(C)=O)C2OC(C)=O)c(=O)[nH]1 (stereo not drawn)
inactive: dose: 100.0 mg/kg/injection, schedule: Q01DX001 (ip), vehicle: saline with Tween-80 104 % of control | dose: 200.0 mg/kg/injection, schedule: Q01DX001 (ip), vehicle: saline with Tween-80 100 % of control | dose: 400.0 mg/kg/injection, schedule: Q01DX001 (ip), vehicle: saline with Tween-80 100 % of control

CN1CC(O)C2=CC(=O)C(=O)C=C21 (stereo not drawn)
inactive: dose: 30.0 mg/kg/injection, schedule: Q01DX005 (ip), vehicle: saline 117 % of control | [5] 120 % of control | [6] 119 % of control

COc1ccc(-c2cc(-c3cc(-c4ccc(OC)cc4)nc(N)n3)nc(N)n2)cc1
inactive: [5] 105 % of control | [6] 102 % of control | dose: 240.0 mg/kg/injection, schedule: Q01DX005 (ip), vehicle: saline 105 % of control
